Assay results taken from patent publication US7998987B2, “Inhibitors of c-Met and uses thereof” (Vertex Pharmaceuticals Incorporated, priority 2005, dated 2011).

The compounds below were run against c-Met (Homo sapiens, UniProt P08581) (assay: Ki determination for the inhibition of c-Met kinase activity (standard coupled enzyme system)). Conditions: coupled enzyme system, 200 μM ATP, 80 nM c-Met, 30° C.; number printed instead of class symbol; read-out: c-Met Ki.
Type: biochemical
Summary of the method: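 Continuous coupled-enzyme (PK/LDH, NADH depletion) assay with 80 nM c-Met, 200 μM ATP and 10 μM polyGluTyr in 100 mM HEPES pH 7.5, 10 mM MgCl2, 1.5% DMSO at 30 °C.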

Sequence of c-Met (P08581 25-1390): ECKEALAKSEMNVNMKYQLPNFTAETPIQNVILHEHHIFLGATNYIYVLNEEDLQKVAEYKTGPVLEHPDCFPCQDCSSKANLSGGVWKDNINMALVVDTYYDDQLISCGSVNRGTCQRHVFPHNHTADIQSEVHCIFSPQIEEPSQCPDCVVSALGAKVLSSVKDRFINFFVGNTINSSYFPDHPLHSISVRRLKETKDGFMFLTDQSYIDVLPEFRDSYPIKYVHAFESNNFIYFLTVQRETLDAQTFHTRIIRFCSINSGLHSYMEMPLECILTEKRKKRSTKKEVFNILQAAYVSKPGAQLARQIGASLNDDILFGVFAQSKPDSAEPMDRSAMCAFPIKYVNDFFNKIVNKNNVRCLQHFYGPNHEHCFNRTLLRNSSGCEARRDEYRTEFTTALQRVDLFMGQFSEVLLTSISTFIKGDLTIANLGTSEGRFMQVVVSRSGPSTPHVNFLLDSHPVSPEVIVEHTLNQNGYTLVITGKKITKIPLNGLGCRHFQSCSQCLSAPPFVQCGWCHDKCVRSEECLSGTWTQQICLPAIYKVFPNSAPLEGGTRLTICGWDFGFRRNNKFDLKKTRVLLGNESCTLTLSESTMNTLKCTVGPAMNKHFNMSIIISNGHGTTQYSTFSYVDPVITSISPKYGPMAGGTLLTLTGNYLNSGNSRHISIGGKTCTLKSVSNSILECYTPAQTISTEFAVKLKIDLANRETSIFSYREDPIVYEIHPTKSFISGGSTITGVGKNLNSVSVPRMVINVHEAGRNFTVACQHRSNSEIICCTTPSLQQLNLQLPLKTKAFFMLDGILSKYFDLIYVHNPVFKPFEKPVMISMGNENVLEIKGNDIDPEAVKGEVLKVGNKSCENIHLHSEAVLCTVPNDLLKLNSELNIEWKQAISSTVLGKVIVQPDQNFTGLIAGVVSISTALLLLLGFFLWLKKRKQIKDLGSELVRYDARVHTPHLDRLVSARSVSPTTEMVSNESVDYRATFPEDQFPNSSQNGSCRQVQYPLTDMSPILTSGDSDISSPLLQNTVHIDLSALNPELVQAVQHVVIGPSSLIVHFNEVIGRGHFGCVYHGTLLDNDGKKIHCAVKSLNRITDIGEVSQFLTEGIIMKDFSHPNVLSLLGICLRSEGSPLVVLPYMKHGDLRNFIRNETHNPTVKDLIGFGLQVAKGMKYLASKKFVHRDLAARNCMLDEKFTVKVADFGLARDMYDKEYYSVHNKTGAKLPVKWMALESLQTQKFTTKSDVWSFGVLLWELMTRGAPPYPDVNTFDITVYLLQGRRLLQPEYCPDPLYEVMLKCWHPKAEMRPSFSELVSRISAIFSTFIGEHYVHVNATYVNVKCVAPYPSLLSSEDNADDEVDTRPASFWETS

Work on `COc1ccc(C2(c3nnc4ccc(Nc5cccc(Cl)c5)nn34)CC2)cc1` [Compound 356] yielded a Ki of 0.1 µM.

Same assay, conditions: coupled enzyme system, 200 μM ATP, 80 nM c-Met, 30° C.; read-out: c-Met Ki

Compared with `COc1ccc(Cc2nnc3ccc(Nc4cccc(C#N)c4)nn23)cc1` [Compound 287], `CCc1cccc(Nc2ccc3nnc(Cc4ccc(OC)cc4)n3n2)c1` [Compound 291] is higher in Ki: < 0.1 µM for the first, 0.1 to 2 µM for the second. The first binds more tightly here.

First: CCc1cccc(Nc2ccc3nnc(Cc4ccc(O)cc4)n3n2)c1 [Compound 288]
Second: CCc1cccc(Nc2ccc3nnc(Cc4ccc(O)c(F)c4)n3n2)c1 [Compound 289]
The Ki of the first is lower: < 0.1 µM for the first, 0.1 to 2 µM for the second.

`CCc1cccc(Nc2ccc3nnc(Cc4ccc(O)c(Cl)c4)n3n2)c1` [Compound 290] and `OCCc1cccc(Nc2ccc3nnc(Cc4ccc(O)c(Cl)c4)n3n2)c1` [Compound 300] fall in the same range of Ki: 0.1 to 2 µM for the first, 0.1 to 2 µM for the second.

First: Oc1ccc(Cc2nnc3ccc(Nc4cccc(C(F)(F)F)c4)nn23)cc1F [Compound 292]
Second: COc1cccc(Nc2ccc3nnc(Cc4ccc(O)c(F)c4)n3n2)c1 [Compound 293]
The Ki of the first is lower: < 0.1 µM for the first, 0.1 to 2 µM for the second. The first binds more tightly here.

`Oc1ccc(Cc2nnc3ccc(Nc4cc(Cl)cc(Cl)c4)nn23)cc1` [Compound 294] and `Cc1cc(C)cc(Nc2ccc3nnc(Cc4ccc(O)cc4)n3n2)c1` [Compound 295] cannot be ordered by Ki: < 0.1 µM for the first, < 0.1 µM for the second.

Compared with `Cc1cc(C)cc(Nc2ccc3nnc(Cc4ccc(O)c(Cl)c4)n3n2)c1` [Compound 296], `COc1ccc(Cc2nnc3ccc(Nc4cc(C)cc(C)c4)nn23)cc1` [Compound 297] is higher in Ki: < 0.1 µM for the first, 0.1 to 2 µM for the second.

First: Oc1ccc(Cc2nnc3ccc(Nc4cc(F)cc(F)c4)nn23)cc1F [Compound 298]
Second: CC(O)c1cccc(Nc2ccc3nnc(Cc4ccc(O)c(Cl)c4)n3n2)c1 (stereo not shown) [Compound 299]
The Ki of the first is lower: < 0.1 µM for the first, 0.1 to 2 µM for the second.

`OCCc1cccc(Nc2ccc3nnc(Cc4ccc5c(c4)OCO5)n3n2)c1` [Compound 301] and `Clc1cccc(Nc2ccc3nnc(CNc4ccc5c(c4)OCO5)n3n2)c1` [Compound 347] fall in the same range of Ki: 0.1 to 2 µM for the first, 0.1 to 2 µM for the second.

`CC1(C)CC(Nc2ccc3nnc(Cc4ccc(O)cc4)n3n2)CCO1` (stereo not shown) [Compound 302] and `Oc1ccc(Cc2nnc3ccc(NC4CC4)nn23)cc1` [Compound 329] fall in the same range of Ki: 0.1 to 2 µM for the first, 0.1 to 2 µM for the second.

`C[C@H](CO)Nc1ccc2nnc(Cc3ccc(O)cc3)n2n1` [Compound 303] and `COC[C@@H](C)Nc1ccc2nnc(Cc3ccc(O)cc3)n2n1` [Compound 304] fall in the same range of Ki: 0.1 to 2 µM for the first, 0.1 to 2 µM for the second.

`Oc1ccc(Cc2nnc3ccc(Sc4cccc(Cl)c4)nn23)cc1` [Compound 305] and `Cc1ccc(Cl)cc1Nc1ccc2nnc(Cc3ccc(O)cc3)n2n1` [Compound 358] cannot be ordered by Ki: < 0.1 µM for the first, < 0.1 µM for the second.

`CCOC(=O)N1CCC(Nc2ccc3nnc(Cc4ccc(O)cc4)n3n2)CC1` [Compound 306] and `CC(=O)N1CCC(Nc2ccc3nnc(Cc4ccc(O)cc4)n3n2)CC1` [Compound 323] fall in the same range of Ki: 0.1 to 2 µM for the first, 0.1 to 2 µM for the second.

Compared with `O=C1NCCCCC1Nc1ccc2nnc(Cc3ccc(O)cc3)n2n1` (stereo not shown) [Compound 307], `Oc1ccc(Cc2nnc3ccc(NC4CCC4)nn23)cc1` [Compound 330] is lower in Ki: > 2 µM for the first, 0.1 to 2 µM for the second. The second binds more tightly here.

`CC[C@@H](CO)Nc1ccc2nnc(Cc3ccc(O)cc3)n2n1` [Compound 308] and `CC[C@H](CO)Nc1ccc2nnc(Cc3ccc(O)cc3)n2n1` [Compound 312] fall in the same range of Ki: 0.1 to 2 µM for the first, 0.1 to 2 µM for the second.

Compared with `C[C@@H](Nc1ccc2nnc(Cc3ccc(O)cc3)n2n1)C(C)(C)C` [Compound 309], `CCN(CC)CC(C)Nc1ccc2nnc(Cc3ccc(O)cc3)n2n1` (stereo not shown) [Compound 311] is higher in Ki: 0.1 to 2 µM for the first, > 2 µM for the second.

`C[C@H](Nc1ccc2nnc(Cc3ccc(O)cc3)n2n1)c1ccccc1` [Compound 310] and `C[C@@H](Nc1ccc2nnc(Cc3ccc(O)cc3)n2n1)c1ccccc1` [Compound 313] fall in the same range of Ki: 0.1 to 2 µM for the first, 0.1 to 2 µM for the second.

First: Fc1ccc(Cc2nnc3ccc(Nc4cccc(Cl)c4)nn23)c(Cl)c1 [Compound 314]
Second: Fc1ccc(NCc2nnc3ccc(Nc4cccc(Cl)c4)nn23)c(Cl)c1 [Compound 342]
The Ki of the first is lower: 0.1 to 2 µM for the first, > 2 µM for the second. The first binds more tightly here.

`Clc1cccc(Nc2ccc3nnc(Cc4ccccc4)n3n2)c1` [Compound 315] and `Nc1cccc(Cc2nnc3ccc(Nc4cccc(Cl)c4)nn23)c1` [Compound 317] cannot be ordered by Ki: > 2 µM for the first, > 2 µM for the second.

`O=C(Cc1nnc2ccc(Nc3cccc(Cl)c3)nn12)c1cccnc1` [Compound 316] and `Clc1cccc(Nc2ccc3nnc(CCc4cccnc4)n3n2)c1` [Compound 368] cannot be ordered by Ki: > 2 µM for the first, > 2 µM for the second.

First: Oc1ccc(Cc2nnc3ccc(NC4CCOCC4)nn23)cc1 [Compound 318]
Second: Oc1ccc(Cc2nnc3ccc(NC4CCNCC4)nn23)cc1 [Compound 322]
The Ki of the first is lower: 0.1 to 2 µM for the first, > 2 µM for the second. The first binds more tightly here.

`C[C@H](c1ccc(O)cc1)c1nnc2ccc(Nc3cccc(Cl)c3)nn12` [Compound 319] and `C[C@@H](c1ccc(O)cc1)c1nnc2ccc(Nc3cccc(Cl)c3)nn12` [Compound 320] cannot be ordered by Ki: < 0.1 µM for the first, < 0.1 µM for the second.

`CC(c1ccc(O)cc1)c1nnc2ccc(Nc3cccc(Cl)c3)nn12` (stereo not shown) [Compound 321] and `CCC(c1ccc(O)cc1)c1nnc2ccc(Nc3cccc(Cl)c3)nn12` (stereo not shown) [Compound 367] cannot be ordered by Ki: < 0.1 µM for the first, < 0.1 µM for the second.

First: CC(C)C(=O)N1CCC(Nc2ccc3nnc(Cc4ccc(O)cc4)n3n2)CC1 [Compound 324]
Second: CC(C)C(=O)N1CCCC(Nc2ccc3nnc(Cc4ccc(O)cc4)n3n2)C1 (stereo not shown) [Compound 327]
The Ki of the first is lower: 0.1 to 2 µM for the first, > 2 µM for the second. The first binds more tightly here.

Compared with `O=C(Cc1ccccc1)N1CCC(Nc2ccc3nnc(Cc4ccc(O)cc4)n3n2)CC1` [Compound 325], `O=C(Cc1ccccc1)N1CCCC(Nc2ccc3nnc(Cc4ccc(O)cc4)n3n2)C1` (stereo not shown) [Compound 328] is higher in Ki: 0.1 to 2 µM for the first, > 2 µM for the second. The first binds more tightly here.

Going from `CC(=O)N1CCCC(Nc2ccc3nnc(Cc4ccc(O)cc4)n3n2)C1` (stereo not shown) [Compound 326] to `COc1ccc(Cl)cc1Nc1ccc2nnc(Cc3ccc(O)cc3)n2n1` [Compound 360], the Ki falls from > 2 µM to < 0.1 µM.

`COc1cc(NCc2nnc3ccc(Nc4cccc(Cl)c4)nn23)c(C(C)=O)cc1OC` [Compound 331] and `COc1cc(OC)c(NCc2nnc3ccc(Nc4cccc(Cl)c4)nn23)cc1Cl` [Compound 345] cannot be ordered by Ki: > 2 µM for the first, > 2 µM for the second.

`COC(=O)c1c(O)cccc1NCc1nnc2ccc(Nc3cccc(Cl)c3)nn12` [Compound 332] and `COc1ccc(NCc2nnc3ccc(Nc4cccc(Cl)c4)nn23)c(O)c1` [Compound 351] fall in the same range of Ki: 0.1 to 2 µM for the first, 0.1 to 2 µM for the second.

`Clc1cccc(Nc2ccc3nnc(CNc4cccc(OCc5ccccc5)c4)n3n2)c1` [Compound 333] and `Clc1cccc(Nc2ccc3nnc(CNc4cccc(Oc5ccccc5)c4)n3n2)c1` [Compound 334] cannot be ordered by Ki: > 2 µM for the first, > 2 µM for the second.

`COc1ccc(NCc2nnc3ccc(Nc4cccc(Cl)c4)nn23)cc1O` [Compound 335] and `COc1ccc(NCc2nnc3ccc(Nc4cccc(Cl)c4)nn23)cc1OC` [Compound 337] cannot be ordered by Ki: > 2 µM for the first, > 2 µM for the second.

Compared with `COc1cccc(NCc2nnc3ccc(Nc4cccc(Cl)c4)nn23)c1` [Compound 336], `CCOc1cccc(NCc2nnc3ccc(Nc4cccc(Cl)c4)nn23)c1` [Compound 339] is higher in Ki: 0.1 to 2 µM for the first, > 2 µM for the second. The first binds more tightly here.

`Oc1cccc(NCc2nnc3ccc(Nc4cccc(Cl)c4)nn23)c1` [Compound 338] and `Oc1cccc(Cc2nnc3ccc(Nc4cccc(Cl)c4)nn23)c1` [Compound 365] fall in the same range of Ki: 0.1 to 2 µM for the first, 0.1 to 2 µM for the second.

`O=C(O)c1cc(O)ccc1NCc1nnc2ccc(Nc3cccc(Cl)c3)nn12` [Compound 340] and `Fc1ccc(NCc2nnc3ccc(Nc4cccc(Cl)c4)nn23)c(F)c1` [Compound 344] cannot be ordered by Ki: > 2 µM for the first, > 2 µM for the second.

`Fc1ccc(NCc2nnc3ccc(Nc4cccc(Cl)c4)nn23)cc1F` [Compound 341] and `Fc1ccc(NCc2nnc3ccc(Nc4cccc(Cl)c4)nn23)cc1` [Compound 343] cannot be ordered by Ki: > 2 µM for the first, > 2 µM for the second.

`COc1cc(NCc2nnc3ccc(Nc4cccc(Cl)c4)nn23)cc(OC)c1OC` [Compound 346] and `COc1ccc(OC)c(NCc2nnc3ccc(Nc4cccc(Cl)c4)nn23)c1` [Compound 353] cannot be ordered by Ki: > 2 µM for the first, > 2 µM for the second.

Compared with `Clc1cccc(Nc2ccc3nnc(CNc4ccc5c(c4)OCCO5)n3n2)c1` [Compound 349], `Clc1cccc(Nc2ccc3nnc(Cc4ccc5c(c4)CCO5)n3n2)c1` [Compound 355] is lower in Ki: > 2 µM for the first, < 0.1 µM for the second.

First: COc1ccc(NCc2nnc3ccc(Nc4cccc(Cl)c4)nn23)cc1 [Compound 350]
Second: CCC(c1ccc(OC)cc1)c1nnc2ccc(Nc3cccc(Cl)c3)nn12 (stereo not shown) [Compound 357]
The Ki of the first is higher: > 2 µM for the first, < 0.1 µM for the second.

Compared with `Oc1ccc(NCc2nnc3ccc(Nc4cccc(Cl)c4)nn23)c2cccnc12` [Compound 352], `Oc1ccc(CCc2nnc3ccc(Nc4cccc(Cl)c4)nn23)cc1` [Compound 366] is lower in Ki: > 2 µM for the first, 0.1 to 2 µM for the second.

First: Clc1cccc(Nc2ccc3nnc(Cc4ccc(Cl)nc4)n3n2)c1 [Compound 354]
Second: CS(=O)(=O)c1ccc(Cc2nnc3ccc(Nc4cccc(Cl)c4)nn23)cc1 [Compound 364]
The Ki of the first is lower: 0.1 to 2 µM for the first, > 2 µM for the second. The first binds more tightly here.

`Oc1ccc(Cc2nnc3ccc(Nc4cc(Cl)ccc4F)nn23)cc1` [Compound 359] and `Oc1ccc(Cc2nnc3ccc(Nc4cc(Cl)ccc4Cl)nn23)cc1` [Compound 361] cannot be ordered by Ki: < 0.1 µM for the first, < 0.1 µM for the second.

First: Fc1ccc(Cl)cc1Nc1ccc2nnc(Cc3ccc4c(c3)OCO4)n2n1 [Compound 362]
Second: Clc1ccc(Cl)c(Nc2ccc3nnc(Cc4ccc5c(c4)OCO5)n3n2)c1 [Compound 363]
The Ki of the first is lower: < 0.1 µM for the first, 0.1 to 2 µM for the second. The first binds more tightly here.

Same assay, conditions: coupled enzyme system, 200 μM ATP, 10 μM polyGluTyr, 80 nM c-Met, 30° C.; read-out: c-Met Ki

`CCCC(C)Nc1ccc2nnc(Cc3ccc(O)cc3)n2n1` (stereo not shown) [Compound 280] and `CCC(CC)Nc1ccc2nnc(Cc3ccc(O)cc3)n2n1` [Compound 281] fall in the same range of Ki: 0.1 to 2 µM for the first, 0.1 to 2 µM for the second.

`CC(C)C(CO)Nc1ccc2nnc(Cc3ccc(O)cc3)n2n1` (stereo not shown) [Compound 282] and `CN1CCC(Nc2ccc3nnc(Cc4ccc(O)cc4)n3n2)CC1` [Compound 283] fall in the same range of Ki: 0.1 to 2 µM for the first, 0.1 to 2 µM for the second.

`CC1CCCC(Nc2ccc3nnc(Cc4ccc(O)cc4)n3n2)C1` (stereo not shown) [Compound 284] and `COc1ccc(Cc2nnc3ccc(Nc4cccc(F)c4)nn23)cc1` [Compound 285] cannot be ordered by Ki: < 0.1 µM for the first, < 0.1 µM for the second.

`Fc1cccc(Nc2ccc3nnc(Cc4ccc5c(c4)OCO5)n3n2)c1` [Compound 286] was tested, and the Ki was < 0.1 µM.
